The values below come from patent US11945813B2, “5-substituted 4-amino-1H-benzo[c][1,2,6]thiadiazine 2,2-dioxides and formulations and uses thereof” (Firmenich Incorporated, priority 2018, dated 2024).

The target in the experiment is T1, T1R2/T1R3 taste receptor (Homo sapiens, UniProt Q8TE23).
T1 sequence (Q8TE23 20-839): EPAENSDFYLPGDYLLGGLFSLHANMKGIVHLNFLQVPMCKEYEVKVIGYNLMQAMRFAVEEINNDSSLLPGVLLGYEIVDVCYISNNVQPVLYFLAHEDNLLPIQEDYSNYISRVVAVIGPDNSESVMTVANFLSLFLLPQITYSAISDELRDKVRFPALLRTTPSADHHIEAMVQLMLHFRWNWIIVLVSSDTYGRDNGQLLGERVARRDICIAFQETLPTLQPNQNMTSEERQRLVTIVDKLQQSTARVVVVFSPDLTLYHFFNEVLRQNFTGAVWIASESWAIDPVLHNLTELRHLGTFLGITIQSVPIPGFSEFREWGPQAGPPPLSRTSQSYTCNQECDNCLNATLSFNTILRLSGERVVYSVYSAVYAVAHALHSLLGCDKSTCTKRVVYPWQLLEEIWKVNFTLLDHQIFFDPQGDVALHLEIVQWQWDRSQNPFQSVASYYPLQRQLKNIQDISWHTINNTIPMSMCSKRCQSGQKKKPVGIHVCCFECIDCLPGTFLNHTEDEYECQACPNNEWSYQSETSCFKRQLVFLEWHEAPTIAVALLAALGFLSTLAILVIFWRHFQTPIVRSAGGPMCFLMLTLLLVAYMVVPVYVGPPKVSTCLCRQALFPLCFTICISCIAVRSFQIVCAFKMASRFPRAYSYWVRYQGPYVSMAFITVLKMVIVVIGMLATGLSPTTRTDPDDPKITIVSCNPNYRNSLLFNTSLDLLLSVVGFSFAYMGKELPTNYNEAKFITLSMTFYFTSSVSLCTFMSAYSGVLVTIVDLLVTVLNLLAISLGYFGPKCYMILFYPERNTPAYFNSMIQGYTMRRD
T1 sequence (Q7RTX0 21-852 partner): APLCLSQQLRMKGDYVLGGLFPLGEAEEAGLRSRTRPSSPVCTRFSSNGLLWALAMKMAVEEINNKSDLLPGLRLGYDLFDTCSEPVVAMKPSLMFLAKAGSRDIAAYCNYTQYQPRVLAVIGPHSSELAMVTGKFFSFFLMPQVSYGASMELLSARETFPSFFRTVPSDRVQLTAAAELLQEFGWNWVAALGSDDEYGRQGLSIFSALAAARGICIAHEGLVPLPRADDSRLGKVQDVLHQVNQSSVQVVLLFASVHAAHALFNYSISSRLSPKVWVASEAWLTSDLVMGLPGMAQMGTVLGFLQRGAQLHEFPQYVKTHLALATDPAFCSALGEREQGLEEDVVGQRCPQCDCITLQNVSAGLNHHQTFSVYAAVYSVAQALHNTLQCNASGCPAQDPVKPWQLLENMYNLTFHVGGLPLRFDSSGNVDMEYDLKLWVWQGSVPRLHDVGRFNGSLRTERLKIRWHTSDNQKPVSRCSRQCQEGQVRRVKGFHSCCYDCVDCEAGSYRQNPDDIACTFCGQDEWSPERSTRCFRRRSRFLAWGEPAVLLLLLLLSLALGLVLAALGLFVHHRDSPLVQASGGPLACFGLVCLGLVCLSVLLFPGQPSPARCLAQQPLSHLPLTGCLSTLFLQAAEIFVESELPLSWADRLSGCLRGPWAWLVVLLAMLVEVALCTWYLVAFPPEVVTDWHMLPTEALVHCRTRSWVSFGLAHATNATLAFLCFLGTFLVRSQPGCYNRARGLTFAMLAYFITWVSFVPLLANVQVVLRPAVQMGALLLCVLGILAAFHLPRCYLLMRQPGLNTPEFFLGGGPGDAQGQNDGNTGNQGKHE
In words: Receptor-based assay: sweetener EC50 alone and with test compound (enhancement ratio). The settings on record: for Fructose Enhancement EC50 Ratio: sweetener fructose; for Sucrose Enhancement EC50 Ratio: sweetener sucrose; for Sucralose Enhancement EC50 Ratio: sweetener sucralose. The class given is cell-based. A digest of the protocol: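 Sucrose, sucralose or fructose EC50 measured on human T1R2/T1R3, alone and with 3, 10 or 50 μM test compound. Enhancement is the EC50 ratio without/with compound, binned A >20, B 10-20, C >1 to <10.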

In the case of `CC(C)NC(=O)c1cccc(N2CCC[C@H](COc3cccc4c3C(N)=NS(=O)(=O)N4)C2)n1` [Compound 407], where the note is “10 μM test compound”, the “Fructose Enhancement EC50 Ratio” value was “C (A “C” value indicates an enhancement ratio greater than 1 and less than 10)”; the “Sucrose Enhancement EC50 Ratio” value is reported as “B (A “B” value indicates an enhancement ratio from 10 to 20)”. Besides, for the setting “50 μM test compound”, the “Fructose Enhancement EC50 Ratio” value was “C (A “C” value indicates an enhancement ratio greater than 1 and less than 10)”; the “Sucrose Enhancement EC50 Ratio” value was “C (A “C” value indicates an enhancement ratio greater than 1 and less than 10)”.
Turning to `NC1=NS(=O)(=O)Nc2cccc(OC[C@H]3CCCN(c4ccc(C(=O)NCC5CC5)cn4)C3)c21` [Compound 516], the “Fructose Enhancement EC50 Ratio” value (50 μM test compound) is “C (A “C” value indicates an enhancement ratio greater than 1 and less than 10)”. In addition, the “Sucralose Enhancement EC50 Ratio” value is recorded as “A (An “A” value indicates an enhancement ratio of greater than 20)” (10 μM test compound) and “A (An “A” value indicates an enhancement ratio of greater than 20)” (50 μM test compound). Further, the “Sucrose Enhancement EC50 Ratio” value reads like this: (3 μM test compound) “C (A “C” value indicates an enhancement ratio greater than 1 and less than 10)”; (10 μM test compound) “C (A “C” value indicates an enhancement ratio greater than 1 and less than 10)”; (50 μM test compound) “C (A “C” value indicates an enhancement ratio greater than 1 and less than 10)”.
In the case of `CCNC(=O)c1cccc(N2CCC[C@H](COc3cccc4c3C(N)=NS(=O)(=O)N4)C2)n1` [Compound 402], the “Sucralose Enhancement EC50 Ratio” value runs as follows: (10 μM test compound) “A (An “A” value indicates an enhancement ratio of greater than 20)”; (50 μM test compound) “A (An “A” value indicates an enhancement ratio of greater than 20)”. In addition, the “Sucrose Enhancement EC50 Ratio” value (3 μM test compound) was “C (A “C” value indicates an enhancement ratio greater than 1 and less than 10)”; the “Sucrose Enhancement EC50 Ratio” value (10 μM test compound) is “C (A “C” value indicates an enhancement ratio greater than 1 and less than 10)”; the “Sucrose Enhancement EC50 Ratio” value (50 μM test compound) was “C (A “C” value indicates an enhancement ratio greater than 1 and less than 10)”.
As for `CC(C)NC(=O)c1ccc(N2CCC[C@H](COc3cccc4c3C(N)=NS(=O)(=O)N4)C2)nc1` [Compound 506], the “Sucralose Enhancement EC50 Ratio” value reads like this: (10 μM test compound) “A (An “A” value indicates an enhancement ratio of greater than 20)”; (50 μM test compound) “A (An “A” value indicates an enhancement ratio of greater than 20)”. For the same compound, the “Sucrose Enhancement EC50 Ratio” value was “C (A “C” value indicates an enhancement ratio greater than 1 and less than 10)” (3 μM test compound); “C (A “C” value indicates an enhancement ratio greater than 1 and less than 10)” (10 μM test compound); “C (A “C” value indicates an enhancement ratio greater than 1 and less than 10)” (50 μM test compound).
Take `NC1=NS(=O)(=O)Nc2cccc(OC[C@H]3CCCN(c4cccc(C(=O)NCC5CCCCC5)n4)C3)c21` [Compound 418]: the “Sucralose Enhancement EC50 Ratio” value (10 μM test compound) is reported as “B (A “B” value indicates an enhancement ratio from 10 to 20)” and the “Sucralose Enhancement EC50 Ratio” value (50 μM test compound) is “A (An “A” value indicates an enhancement ratio of greater than 20)”. Also, the “Sucrose Enhancement EC50 Ratio” value by setting is: (3 μM test compound) “C (A “C” value indicates an enhancement ratio greater than 1 and less than 10)”; (10 μM test compound) “C (A “C” value indicates an enhancement ratio greater than 1 and less than 10)”; (50 μM test compound) “C (A “C” value indicates an enhancement ratio greater than 1 and less than 10)”.
`CCCNC(=O)c1ccnc(N2CCC[C@H](COc3cccc4c3C(N)=NS(=O)(=O)N4)C2)c1` [Compound 602]: where the note is “10 μM test compound”, the “Fructose Enhancement EC50 Ratio” value was “C (A “C” value indicates an enhancement ratio greater than 1 and less than 10)”; the “Sucralose Enhancement EC50 Ratio” value is given as “A (An “A” value indicates an enhancement ratio of greater than 20)”; the “Sucrose Enhancement EC50 Ratio” value is “B (A “B” value indicates an enhancement ratio from 10 to 20)”. Besides, where the note is “50 μM test compound”, the “Fructose Enhancement EC50 Ratio” value was “C (A “C” value indicates an enhancement ratio greater than 1 and less than 10)”; the “Sucralose Enhancement EC50 Ratio” value is recorded as “A (An “A” value indicates an enhancement ratio of greater than 20)”. Also, the “Sucrose Enhancement EC50 Ratio” value (3 μM test compound) was “C (A “C” value indicates an enhancement ratio greater than 1 and less than 10)”.
As to `CN(C)CCNC(=O)c1cccc(N2CCC[C@H](COc3cccc4c3C(N)=NS(=O)(=O)N4)C2)n1` [Compound 406], where the note is “10 μM test compound”, the “Fructose Enhancement EC50 Ratio” value is “C (A “C” value indicates an enhancement ratio greater than 1 and less than 10)”; the “Sucralose Enhancement EC50 Ratio” value was “A (An “A” value indicates an enhancement ratio of greater than 20)”; the “Sucrose Enhancement EC50 Ratio” value is “B (A “B” value indicates an enhancement ratio from 10 to 20)”. Besides, for the setting “50 μM test compound”, the “Fructose Enhancement EC50 Ratio” value is “C (A “C” value indicates an enhancement ratio greater than 1 and less than 10)”; the “Sucrose Enhancement EC50 Ratio” value is “B (A “B” value indicates an enhancement ratio from 10 to 20)”. The “Sucrose Enhancement EC50 Ratio” value (3 μM test compound) is “C (A “C” value indicates an enhancement ratio greater than 1 and less than 10)”.
Consider `CC(C)NC(=O)c1ccnc(N2CCC[C@H](COc3cccc4c3C(N)=NS(=O)(=O)N4)C2)c1` [Compound 606], for which the “Fructose Enhancement EC50 Ratio” value runs as follows: (10 μM test compound) “C (A “C” value indicates an enhancement ratio greater than 1 and less than 10)”; (50 μM test compound) “C (A “C” value indicates an enhancement ratio greater than 1 and less than 10)”. The “Sucralose Enhancement EC50 Ratio” value runs as follows: (10 μM test compound) “A (An “A” value indicates an enhancement ratio of greater than 20)”; (50 μM test compound) “A (An “A” value indicates an enhancement ratio of greater than 20)”. Further, the “Sucrose Enhancement EC50 Ratio” value (3 μM test compound) was “C (A “C” value indicates an enhancement ratio greater than 1 and less than 10)”; the “Sucrose Enhancement EC50 Ratio” value (10 μM test compound) is “B (A “B” value indicates an enhancement ratio from 10 to 20)”; the “Sucrose Enhancement EC50 Ratio” value (50 μM test compound) is “C (A “C” value indicates an enhancement ratio greater than 1 and less than 10)”.
For `CNC(=O)c1cccc(N2CCC[C@H](COc3cccc4c3C(N)=NS(=O)(=O)N4)C2)n1` [Compound 401], the “Sucralose Enhancement EC50 Ratio” value is reported as “A (An “A” value indicates an enhancement ratio of greater than 20)” (10 μM test compound) and “A (An “A” value indicates an enhancement ratio of greater than 20)” (50 μM test compound). Also, the “Sucrose Enhancement EC50 Ratio” value was “C (A “C” value indicates an enhancement ratio greater than 1 and less than 10)” (3 μM test compound); “B (A “B” value indicates an enhancement ratio from 10 to 20)” (10 μM test compound); “C (A “C” value indicates an enhancement ratio greater than 1 and less than 10)” (50 μM test compound).
In the case of `CC(C)(COc1cccc2c1C(N)=NS(=O)(=O)N2)Nc1ncccn1` [Compound 102], for the setting “10 μM test compound”, the “Fructose Enhancement EC50 Ratio” value is “C (A “C” value indicates an enhancement ratio greater than 1 and less than 10)”; the “Sucralose Enhancement EC50 Ratio” value is “A (An “A” value indicates an enhancement ratio of greater than 20)”; the “Sucrose Enhancement EC50 Ratio” value was “C (A “C” value indicates an enhancement ratio greater than 1 and less than 10)”. For the same compound, where the note is “50 μM test compound”, the “Sucralose Enhancement EC50 Ratio” value is reported as “A (An “A” value indicates an enhancement ratio of greater than 20)” and the “Sucrose Enhancement EC50 Ratio” value was “B (A “B” value indicates an enhancement ratio from 10 to 20)”.
